≈ marks a conversion by molar mass, not a printed value.
How the values were obtained:
[1] = system: MatTek EpiAirway tissue (AIR-100); experiment: cells; assay type: cell-based; settings: Homo sapiens, 24 h, read-out: IC50 (concentration needed to inhibit tissue viability by 50%)
[2] = system: C. albicans (ATCC MYA-2876); experiment: Checkerboard assay of NO donors with antifungals; assay type: cell-based, Candida albicans
C. auris (ATCC MYA-5001) = experiment: Checkerboard assay of NO donors with antifungals; assay type: cell-based, Candida auris
[3] = system: C. neoformans (ATCC208821); assay type: cell-based, Cryptococcus neoformans
[4] = Characterization of NO release (chemiluminescence nitric oxide analyzer); assay type: physicochemical
[5] = system: Aspergillus fumigatus spores; experiment: Susceptibility assay for sporulating fungi (MIC, EUCAST E.Def.9.4); assay type: cell-based
Candida auris = experiment: Susceptibility assay (MIC, broth microdilution, CLSI M27); assay type: cell-based; settings: for MIC / NO dose at MIC: Candidozyma auris; for MIC: 24 h; for NO dose at MIC: calculated NO dose at MIC
Candida albicans = experiment: as above; assay type: cell-based; settings: for MIC: 24 h; for NO dose at MIC: calculated NO dose at MIC
Cryptococcus neoformans = experiment: as above; assay type: cell-based; settings: for MIC / NO dose at MIC: Cryptococcus neoformans; for MIC: 72 h; for NO dose at MIC: calculated NO dose at MIC
C. auris (MYA-5001) = assay type: cell-based, Candida auris
[6] = system: C. neoformans (ATCC 208821); experiment: Checkerboard assay of NO donors with antifungals; assay type: cell-based, Cryptococcus neoformans
[7] = NO donor combined with 5-fluorocytosine
[8] = NO donor combined with amphotericin B
[9] = NO donor combined with butenafine
[10] = NO donor combined with caspofungin
[11] = NO donor combined with fluconazole
[12] = NO donor combined with miconazole
[13] = phosphate-buffered saline 10 mM, pH 7.4, 37 °C
[14] = ATCC14053, Candida albicans ATCC 14053
[15] = ATCC18804, Candida albicans ATCC 18804
[16] = Cryptococcus neoformans ATCC MYA-4566
[17] = Cryptococcus neoformans ATCC MYA-4567

What does the source list for `NCCN(CCN)/[N+]([O-])=N/O` [DETA/NO, diethylenetriamine/NO]?
IC50 [1]: 48000 mg/L (≈ 294000 µM); checkerboard classification [2, 7]: I (indifferent (I)); ∑FIC [2, 7]: ≥ 1; checkerboard classification [2, 8]: I (indifferent (I)); ∑FIC [2, 8]: ≥ 1; checkerboard classification [2, 9]: I (indifferent (I)); ∑FIC [2, 9]: ≥ 1; checkerboard classification [2, 10]: I (indifferent (I)); ∑FIC [2, 10]: ≥ 1; checkerboard classification [2, 11]: I (indifferent (I)); ∑FIC [2, 11]: ≥ 1; checkerboard classification [2, 12]: S (Synergistic (S)); ∑FIC [2, 12]: 0.375; checkerboard classification (C. auris (ATCC MYA-5001); [7]): I (indifferent (I)); ∑FIC (C. auris (ATCC MYA-5001); [7]): ≥ 1; checkerboard classification (C. auris (ATCC MYA-5001); [8]): I (indifferent (I)); ∑FIC (C. auris (ATCC MYA-5001); [8]): ≥ 1; checkerboard classification (C. auris (ATCC MYA-5001); [9]): I (indifferent (I)); ∑FIC (C. auris (ATCC MYA-5001); [9]): ≥ 1; checkerboard classification (C. auris (ATCC MYA-5001); [10]): I (indifferent (I)); ∑FIC (C. auris (ATCC MYA-5001); [10]): ≥ 1; checkerboard classification (C. auris (ATCC MYA-5001); [11]): I (indifferent (I)); ∑FIC (C. auris (ATCC MYA-5001); [11]): ≥ 1; checkerboard classification (C. auris (ATCC MYA-5001); [12]): I (indifferent (I)); ∑FIC (C. auris (ATCC MYA-5001); [12]): ≥ 1; change in MIC or MFCs after serial passaging [3]: no change; [NO]t, total NO released over full duration ([4]; pH 7.4): 6.3 ± 0.6 µmol/mg; [NO]max, maximum instantaneous NO concentration [4, 13]: 735 ± 94 ppb mg^−1; td, duration of NO release [4, 13]: 107.6 ± 19.9 h; Selectivity Index (IC50 AIR-100 / MIC) ([5]; A. fumigatus ATCC 1022): 150; MIC ([5]; ATCC1022, Aspergillus fumigatus ATCC 1022 spores): 320 mg/L (≈ 1960 µM); NO dose at MIC ([5]; ATCC1022, Aspergillus fumigatus ATCC 1022 spores, calculated NO dose at MIC): 60.5 mg/L; Selectivity Index (IC50 AIR-100 / MIC) (Candida auris; C. auris ATCC MYA-5000): 77; Selectivity Index (IC50 AIR-100 / MIC) (Candida auris; C. auris ATCC MYA-5001): 1595; Selectivity Index (IC50 AIR-100 / MIC) (Candida auris; C. auris ATCC MYA-5003): 154; MIC (Candida auris; Candida auris ATCC MYA-5000): 625 mg/L (≈ 3830 µM); MIC (Candida auris; Candida auris ATCC MYA-5001): 30 mg/L (≈ 184 µM); MIC (Candida auris; Candida auris ATCC MYA-5003): 310 mg/L (≈ 1900 µM); NO dose at MIC (Candida auris; Candida auris ATCC MYA-5000): 117 mg/L; NO dose at MIC (Candida auris; Candida auris ATCC MYA-5001): 5.65 mg/L; NO dose at MIC (Candida auris; Candida auris ATCC MYA-5003): 58.4 mg/L; MIC (Candida albicans; [14]): 625 mg/L (≈ 3830 µM); NO dose at MIC (Candida albicans; [14]): 117 mg/L; MIC (Candida albicans; [15]): 625 mg/L (≈ 3830 µM); NO dose at MIC (Candida albicans; [15]): 117 mg/L; Selectivity Index (IC50 AIR-100 / MIC) (Candida albicans; C. albicans ATCC 14053): 77; Selectivity Index (IC50 AIR-100 / MIC) (Candida albicans; C. albicans ATCC 18804): 77; Selectivity Index (IC50 AIR-100 / MIC) (Candida albicans; C. albicans ATCC MYA-2876): 383; MIC (Candida albicans; Candida albicans ATCC MYA-2876): 125 mg/L (≈ 766 µM); NO dose at MIC (Candida albicans; Candida albicans ATCC MYA-2876): 23.5 mg/L; Selectivity Index (IC50 AIR-100 / MIC) (Cryptococcus neoformans; C. neoformans ATCC 208821): 191; Selectivity Index (IC50 AIR-100 / MIC) (Cryptococcus neoformans; C. neoformans ATCC MYA-4566): 613; Selectivity Index (IC50 AIR-100 / MIC) (Cryptococcus neoformans; C. neoformans ATCC MYA-4567): 154; MIC (Cryptococcus neoformans; [16]): 78 mg/L (≈ 478 µM); MIC (Cryptococcus neoformans; [17]): 310 mg/L (≈ 1900 µM); MIC (Cryptococcus neoformans; ATCC208821, 72 h, Cryptococcus neoformans ATCC 208821): 250 mg/L (≈ 1530 µM); NO dose at MIC (Cryptococcus neoformans; ATCC208821, Cryptococcus neoformans ATCC 208821): 47 mg/L; NO dose at MIC (Cryptococcus neoformans; [16]): 14.7 mg/L; NO dose at MIC (Cryptococcus neoformans; [17]): 58.4 mg/L; change in MIC or MFCs after serial passaging (C. auris (MYA-5001)): no change; checkerboard classification [6, 7]: I (indifferent (I)); ∑FIC [6, 7]: ≥ 1; checkerboard classification [6, 8]: I (indifferent (I)); ∑FIC [6, 8]: ≥ 1; checkerboard classification [6, 9]: A (additive (A)); ∑FIC [6, 9]: 0.500; checkerboard classification [6, 10]: I (indifferent (I)); ∑FIC [6, 10]: ≥ 1; checkerboard classification [6, 11]: I (indifferent (I)); ∑FIC [6, 11]: ≥ 1; checkerboard classification [6, 12]: A (additive (A)); ∑FIC [6, 12]: 0.562

— PMC11121837, “Impact of Nitric Oxide-Release Kinetics on Antifungal Activity” (Journal of Fungi, 2024)
